The text below walks through data of patent US4342780A, “Method of depleting endogenous monoamines” (Merrell-Toraude et Cie, priority 1981, dated 1982).

Data set [1] concerns endogenous catecholamine and 5-HT levels. The data set can be described thus: Effect on endogenous catecholamine and 5-HT levels in brain and heart (general statement). It is filed as in vivo.
In data set [2] the target is T1, AADC (Sus scrofa, UniProt P80041).
T1 sequence (P80041 1-486): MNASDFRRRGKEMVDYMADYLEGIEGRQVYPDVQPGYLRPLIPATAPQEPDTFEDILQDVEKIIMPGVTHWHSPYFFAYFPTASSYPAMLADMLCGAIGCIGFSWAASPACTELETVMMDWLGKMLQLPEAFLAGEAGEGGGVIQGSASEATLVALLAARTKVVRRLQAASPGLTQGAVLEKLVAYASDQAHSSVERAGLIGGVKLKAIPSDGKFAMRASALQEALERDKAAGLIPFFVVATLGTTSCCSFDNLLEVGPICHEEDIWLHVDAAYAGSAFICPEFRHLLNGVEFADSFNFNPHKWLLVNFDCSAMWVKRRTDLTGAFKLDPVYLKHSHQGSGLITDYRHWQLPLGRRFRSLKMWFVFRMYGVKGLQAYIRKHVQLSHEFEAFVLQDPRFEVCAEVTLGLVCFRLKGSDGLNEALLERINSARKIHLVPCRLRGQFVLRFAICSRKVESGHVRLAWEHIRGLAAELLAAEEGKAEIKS
The data set can be described thus: In vitro AADC inhibition: time of 90% inactivation (14CO2 trapping, DL-[1-14C]-dopa substrate). It is filed as biochemical, hog. On the set-up: key to RATING: ++++: The relative activities of the compounds are rated by the given number of "plus" signs; +++: The relative activities of the compounds are rated by the given number of "plus" signs; 0-+: The relative activities of the compounds are rated by the given number of "plus" signs. The note with it: CONC. 100 μM; for TIME OF 90% INACTIVATION: pH 7.4, 37° C.; for RATING: relative activity. How it is done: AADC can be purified from hog kidney by the general method of J. Christenson et al. Archs. Biochem. Biophys., 141, 356 (1970) and G. Lancaster et al., Can. J. Biochem., 50, 791 (1972), and the specific activity of the enzyme is determined by the ^14 CO2 trapping method using DL-[1-^14 C]-dopa as the substrate (see Christenson et al.). One unit of activity is defined as the total amount of enzyme which produces 1 n mol of CO2 per minute, with DL-[1-^14 C]-dopa as substrate.
To 100 μl of 50 mM-phosphate buffer pH 7.4 containing 100 mM-mercapto-ethanol are added 5 μl of an aqueous solution containing the test compound at the desired concentration and 50 μl of an aqueous solution containing 2 units of AADC. The mixture is incubated at 37° C. and 20 μl aliquots are removed at various times. The AADC activity remaining in each aliquot is measured by the CO2 trapping method of Christenson.
The relative activities of the compounds are rated by the given number of "plus" signs.

In data set [3] the test system is AADC. Put plainly: Ex vivo AADC activity in brain of rats after repeated i.p. doses (Table II, footnote c). To be noted: 100 mg/kg i.p. twice daily, three days, 12 h after 6th dose, vs control. How it is done: (§1) The test animals (e.g. mice or rats) are given the test compound in a suitable vehicle, either orally or by injection, each day over the period of time desired. The animals are kept on a constant time cycle, and body weights are measured daily. The animals are sacrificed by decapitation 12 to 24 hours after receiving the last dose of the test compound. Control animals receive the vehicle alone.
(§2) Immediately after death, the organs (brain, heart, and kidney) are removed and homogenized either in 50 ml phosphate buffer pH 6.8 for AADC determination or in ice-cold 0.4 M HClO4 containing 0.05% (w/v) EDTA and 0.1% (w/v) sodium bisulfite for catecholamine determination. AADC activity is determined by the ^14 CO2 trapping method of J. Christenson, supra (see Example 14) using DL-[1-^14 C]-dopa as the substrate. Catecholamines are determined by centrifuging the homogenate, adding the supernatant to alumina buffered to pH 8.0-8.4 to adsorb the catecholamines, re-extracting the catecholamines from the alumina with 0.2 M HClO4 and determining the catecholamines in the extracts using known procedures, such as by reversed-phase ion-pair HPLC with electrochemical detection.
(§3) Table II, shown below, sets forth the results obtained by testing particular compounds of Formula I in the above-described procedure in mice (Swiss Albino) after i.p. administration of the compound twice daily for three days: […]

The subject of data set [4] is catecholamine content (norepinephrine, dopamine). Put plainly: Catecholamine content in organs of rats after repeated i.p. doses (Table II, footnote c). It counts as in vivo. The note with it: 100 mg/kg i.p. twice daily, three days, 12 h after 6th dose, vs control. The method, then:
as §1, §2, §3

Data set [5] has the same test system. Put plainly: Catecholamine content in organs of mice after repeated i.p. doses (Table II). It counts as in vivo, mice (Swiss Albino). The note with it: three days, 12 h after 6th dose, vs control. How it is done: as §1, §2, §3
Data set [6] has as its system AADC. The data set can be described thus: Ex vivo AADC activity in organs of mice after repeated i.p. doses (Table II). On the set-up: species or system mice (Swiss Albino). To be noted: three days, 12 h after 6th dose, vs control. The method, then: as §1, §2, §3
The nature of data set [7]: Deaths in mice after repeated i.p. doses (Table II footnotes). The note with it: 100 mg/kg i.p. twice daily, three days; number dead of animals. It counts as in vivo, mice (Swiss Albino). How it is done: as §1, §3
The mark [8] stands for this setting: 10 mg/kg i.p. twice daily, * not significant.
Setting [9] is: 10 mg/kg i.p. twice daily, * not significant (-25*, -7*).
Where [10] appears, read: 10 mg/kg i.p. twice daily, * not significant (-25*, -9*).
[11] abbreviates: 100 mg/kg i.p. twice daily, * not significant (-35*).

Some results are limits rather than exact numbers.

As to `NC(CF)(Cc1ccc(O)cc1)C(=O)O` (stereo not drawn) [Example 4-OH-phenyl, 2-Amino-2-fluoromethyl-3-(4-hydroxyphenyl)propionic acid], the “selectivity (brain catecholamines lowered, not heart, not brain 5-HT)” value in data set [1] is “not found”. In addition, at AADC [2], the “TIME OF 90% INACTIVATION” value was more than 300 min and the RATING is on record as 0-+. Further, in the data set with AADC [3], the “% CHANGE AADC Brain” value was -88%. Moreover, in data set [4], the “% CHANGE DOPAMINE Brain” value was -88%, the “% CHANGE NOREPINEPHRINE Brain” value is listed as -54% and the “% CHANGE NOREPINEPHRINE Heart” value is -45%.
Regarding `Cc1ccc(CC(N)(CF)C(=O)O)c(O)c1` (stereo not drawn) [2-OH4-methyl phenyl, 2-amino-2-fluoromethyl-3-(2-hydroxy-4-methylphenyl)propionic acid], the “% CHANGE NOREPINEPHRINE Brain” value in data set [5] (setting [8]) is recorded as 0%; in data set [5] (100 mg/kg i.p. twice daily), -69%. Moreover, the “% CHANGE NOREPINEPHRINE Heart” value in data set [5] (setting [9]) was -7%; in data set [5] (100 mg/kg i.p. twice daily), -75%. In addition, the “% CHANGE DOPAMINE Brain” value in data set [5] (setting [10]) is on record as -9%; in data set [5] (setting [11]), -35%. Also, at AADC [2], the “TIME OF 90% INACTIVATION” value is listed as 1 min. Moreover, at AADC [2], the RATING result was “+++”. Moreover, the “% CHANGE AADC Brain” value in the data set on AADC [6] (10 mg/kg i.p. twice daily) is listed as -39%; in the data set on AADC [6] (100 mg/kg i.p. twice daily), -99%. The figures for the “% CHANGE AADC Kidney” value with AADC [6] (10 mg/kg i.p. twice daily) and with AADC [6] (100 mg/kg i.p. twice daily) were -70% and -99.5%, respectively. Moreover, in data set [7], the dead was 2/5.
`Cc1cccc(CC(N)(CF)C(=O)O)c1O` (stereo not drawn) [2-OH3-methyl phenyl, 2-Amino-2-fluoromethyl-3-(2-hydroxy-3-methylphenyl)propionic acid]: the “% CHANGE NOREPINEPHRINE Brain” value was -27% in data set [5] (setting [8]) and -47% in data set [5] (100 mg/kg i.p. twice daily). Besides, the entries for the “% CHANGE NOREPINEPHRINE Heart” value in data set [5] (setting [9]) and in data set [5] (100 mg/kg i.p. twice daily) were -41% and -68%, respectively. The entries for the “% CHANGE DOPAMINE Brain” value in data set [5] (setting [10]) and in data set [5] (setting [11]) were -20% and -24%, respectively. Also, on AADC [2], the “TIME OF 90% INACTIVATION” value is reported as 1 min. For the same molecule, the RATING entry at AADC [2] is “+++”. The “% CHANGE AADC Brain” value is listed as -52% in the data set with AADC [6] (10 mg/kg i.p. twice daily) and -94% in the data set with AADC [6] (100 mg/kg i.p. twice daily). Also, the results for the “% CHANGE AADC Kidney” value with AADC [6] (10 mg/kg i.p. twice daily) and with AADC [6] (100 mg/kg i.p. twice daily) were -84% and -98%, respectively. Also, the dead in data set [7] is 1/5.
